Reference: patent US9751909B2, “Synthesis and uses of nucleic acid compounds with conformationally restricted monomers” (Marina Biotech, Inc., priority 2011, dated 2017)

Assays:
[1] = tested on: microRNA-122; assay: De-repression of downstream mRNAs of microRNA-122 in mouse liver by CRN-containing antimir; type: in vivo, mouse (BALB/c)
Source text: The CRN-containing antimir CRN-Antimir-122-8a was synthesized by the methods of this invention. MicroRNA-122 is an miRNA shown to be liver-specific and involved in lipid metabolism and possibly hepatitis C virus replication. MicroRNA-122 regulates various downstream mRNAs. CRN-Antimir-122-8a is 16-mer oligonucleotide complementary to the 5′ end of microRNA-122 that can silence microRNA-122 and de-repress its downstream targets.
Liver and spleen were harvested.
The end points determined were expression of downstream genes AldoA (Aldolase A), P4H4 (Prolyl 4-hydroxylase gene), and SLC7A1 (Solute carrier family 7). Negative control was a mismatched Antimir-122 sequence.

[2] = Tolerability in mice: body weight, clinical signs, spleen weight, serum chemistry; conditions: BALB/c mice
Procedure: Treatment groups (n=5) were injected intravenously at a 10 mg/kg dose with a dosing schedule of Q1d×3 (every day for three consecutive days). Necropsy was performed at 24 h after the last dose. Body weights and clinical signs were monitored during the course of the study. Liver and spleen were harvested.

[3] = 8-week old BALB/c mice, 10 mg/kg intravenously Q1d×3, necropsy 24 h after last dose

crnm5CsdCsdAscrnTscrnTsdGscrnTscrnm5CsdAscrnm5CsdAsdCsdTscrnm5Cscrnm5CsdA (antisense CCATTGTCACACTCCA; CRN nucleotides, phosphorothioate linkages; (1)..(16) Phosphorothioate linkage between nucleotides; modified_base (1)..(1) Conformationally restricted 5′-methyl nucleomonomer; modified_base (2)..(3) deoxy-nucleotide; modified_base (4)..(5) Conformationally restricted nucleomonomer; modified_base (6)..(6) deoxy-nucleotide; modified_base (7)..(7) Conformationally restricted nucleomonomer; modified_base (8)..(8) Conformationally restricted 5′-) [CRN-Antimir-122-8a]
de-repression in liver AldoA mRNA relative to buffer control [1, 3]: Up to 2.5 fold | de-repression in liver P4H4 mRNA relative to buffer control [1, 3]: Up to 1.5 fold | de-repression in liver SLC7A1 mRNA relative to buffer control [1, 3]: Up to 1.3 fold | de-repression of downstream genes ALDOA, SLC7A, P4H4 in the mouse model ([1]; mouse model, result in words): demonstrated de-repression | alterations in liver and kidney enzymes ([2]; 10 mg/kg intravenously Q1d×3): No alterations | body weight loss after dosing ([2]; 10 mg/kg intravenously Q1d×3): No body weight loss | other serum chemistry parameters ([2]; 10 mg/kg intravenously Q1d×3): within expected normal levels | tolerability ([2]; 10 mg/kg intravenously Q1d×3): well tolerated | spleen weights relative to buffer control ([2]; 10 mg/kg intravenously Q1d×3, necropsy 24 h after last dose): unaltered
